Test results: publication PMC9182086, “Identification of New Non-BBB Permeable Tryptophan Hydroxylase Inhibitors for Treating Obesity and Fatty Liver Disease” (Molecules, 2022)

Assays:
CYP2C19 = biological target: T1, CYP2C19 (Homo sapiens, UniProt P33261); assay: CYP inhibition assay (P450-Glo) CYP2C19; type: in vitro ADME; settings: P450-Glo CYP2C19 Screening System (CYP enzyme), read-out: CYP inhibition 2C19
T1 construct: purchased Promega Corp. V9880
Excerpt: Five major screening systems: P450-Glo CYP1A2 Screening System (Catalog# V9770), P450-Glo CYP2C9 Screening System (Catalog# V9790), P450-Glo CYP2C19 (Catalog# V9880), P450-Glo CYP 2D6 (Catalog# V9890), and P450-Glo CYP3A4 (Catalog# V9920) were attained from Promega Corp. (Madison, WI). α-naphthoflavone, sulfaphenazole, amitriptyline, quinidine, and ketoconazole were identified as positive control inhibitors for CYP1A2, CYP2C9, CYP2C19, CYP2D6, and CYP3A4, respectively. The CYP enzyme and substrate were combined in a potassium phosphate (KPO4) buffer and the reaction is initiated by adding an NADPH regenerating system. The volume of the mixture (12.5 μL in a 96-well plate) was combined with an equal volume of test compound solution and positive control inhibitor (12.5 μL added to make the volume 25 μL). The reaction of the NADPH regeneration system was initiated by adding a 2× concentration of NADPH solution. Then an equal volume of luciferin detection reagent was added. The plates were incubated at room temperature for 20 min and the luminescence signal was measured by a microplate reader device.

TPH1 = biological target: T2, TPH1 (Homo sapiens, UniProt P17752); assay: TPH1 enzyme inhibition, in vitro screening (BPS Bioscience kit, fluorescence); type: biochemical
T2 construct: purchased BPS Bioscience
T2 sequence (P17752 1-444): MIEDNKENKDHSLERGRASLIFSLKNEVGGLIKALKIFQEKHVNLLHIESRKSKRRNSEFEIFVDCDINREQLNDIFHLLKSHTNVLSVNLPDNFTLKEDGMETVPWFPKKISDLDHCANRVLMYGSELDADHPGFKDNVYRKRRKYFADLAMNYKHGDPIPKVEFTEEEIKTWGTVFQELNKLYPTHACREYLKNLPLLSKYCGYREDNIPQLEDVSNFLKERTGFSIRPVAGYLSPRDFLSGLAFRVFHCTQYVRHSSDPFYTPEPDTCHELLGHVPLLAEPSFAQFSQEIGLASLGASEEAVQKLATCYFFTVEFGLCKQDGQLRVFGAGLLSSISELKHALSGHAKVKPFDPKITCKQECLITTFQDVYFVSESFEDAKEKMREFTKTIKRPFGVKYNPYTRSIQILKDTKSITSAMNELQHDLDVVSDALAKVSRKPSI
Method: Consequently, the core structure of thienopyrimidine tyrosine (derivative 6) was selected as the starting point for the synthesis, evaluating the structure-activity relationships (SAR), and optimization of TPH1 inhibitors. […]
In vitro screening was performed as described previously [PMID: 33417443]. Briefly, TPH1 enzyme activity was measured with a commercially available kit (BPS Bioscience). Compounds were dissolved in DMSO (Sigma). Then, 10 μL of the compound was dispensed into a 96-well microplate, and 40 μL of the TPH1 enzyme solution (320 ng enzyme/reaction) was added. Then, 50 μL of the TPH1 reaction solution was added, and the microplate was sealed with aluminum foil. The microplate was immediately cooled to 4 °C, gently shaken, and incubated for 4 h. After a defined time, 10 μL of the TPH1 quench solution was added. Then, the fluorescence was measured with a Flexstation3 microplate reader at 300 nm for excitation and 360 nm for emission. All experiments were performed in triplicate.

HFD-fed C57BL/6J mice = assay: In vivo efficacy test in high-fat diet fed mice; design: species or system mouse; settings: vs vehicle
Method: All animal study protocols were approved by the Institutional Animal Care and Use Committee at the Korea Advanced Institute of Science and Technology. Male C57BL/6J mice were purchased from SLC (Shizuoka, Japan) and acclimatized for a week. Mice were housed in a humidity and temperature-controlled environment under a 12 h light-dark cycle with ad libitum access to water and food. After acclimatization, male mice were fed a high-fat diet (HFD, 60% fat calories, Research diet; New Brunswick, NJ) and received daily treatment with TPH1 inhibitors. […] Compound 18i was dissolved in 5% dimethyl sulfoxide (DMSO) (Sigma, St. Louis, MO, USA) and 25% β-cyclodextrin (Sigma, St. Louis, MO, USA). Vehicle or compound 18i (100 mg kg^−1) was injected intraperitoneally in mice for 10 days after two weeks of HFD feeding. Both compounds 19 and 21 were prepared in 10% DMSO and 10% Kolliphor EL (Sigma, St. Louis, MO, USA). Vehicle and 100 mg kg^−1 of compound 19 or compound 21 were administered daily by intraperitoneal injection or oral feeding, respectively, concomitant to the initiation of HFD feeding. For analyzing blood glucose concentration, glucose in blood collected from the tail vein was measured after fasting mice for 16 h using a Gluco Dr. Top glucometer (Allemedicus, Anyang, Korea). Body weight was measured daily and mice were sacrificed for harvesting adipose tissue and liver.
Tissue samples were fixed in 10% formalin, embedded in paraffin, and cut into 5 μm thick sections, followed by deparaffinization and rehydration for H&E staining and UCP1 immunohistochemistry. After heat-induced antigen retrieval with a citrate buffer (pH 6.0) for 10 min at 95°C, tissue sections were incubated with BLOXALL Blocking solution (Vector Laboratories, Burlingame, CA, USA) to block endogenous peroxidase, followed by incubation with 2% normal goat serum in phosphate-buffered saline (PBS) for 30 min at room temperature to block nonspecific binding. Sections were incubated overnight with the anti-UCP1 primary antibody diluted 1:200 in 2% normal goat serum in PBS (Abcam, Cambridge, UK) at 4 °C, followed by 30 min incubation with biotinylated anti-rabbit IgG secondary antibody diluted 1:400 in PBS for 30 min at room temperature. After incubation with Vectastain […] reagent (Vector Laboratories) for 30 min, peroxidase activity was visualized with 3,3′-diaminobenzidine substrates (Vector Laboratories). For measuring average adipocyte size, we analyzed three random fields of H&E stained micrographs per adipose tissue sample from two representative mice of each group using AdipoCount software.
Fresh liver tissues were flash frozen in O.C.T. compound (Sakura Finetek, Torrance, CA, USA) and 10 μm cryostat sections were collected on glass slides. Sections were allowed to air-dry for 1 h, rinsed with PBS for 5 min, and washed with distilled water for 5 min. After washing, sections were placed in 30% isopropanol for 5 min, 60% isopropanol for 5 min twice, and then stained in Oil Red O solution (0.5% Oil red O (Sigma, St. Louis, MO, USA) dissolved in 60% isopropanol) for 15 min. The stained sections were rinsed twice with distilled water, mounted, coverslipped, and documented using bright field microscopy.

T1 sequence (P33261 whole entry): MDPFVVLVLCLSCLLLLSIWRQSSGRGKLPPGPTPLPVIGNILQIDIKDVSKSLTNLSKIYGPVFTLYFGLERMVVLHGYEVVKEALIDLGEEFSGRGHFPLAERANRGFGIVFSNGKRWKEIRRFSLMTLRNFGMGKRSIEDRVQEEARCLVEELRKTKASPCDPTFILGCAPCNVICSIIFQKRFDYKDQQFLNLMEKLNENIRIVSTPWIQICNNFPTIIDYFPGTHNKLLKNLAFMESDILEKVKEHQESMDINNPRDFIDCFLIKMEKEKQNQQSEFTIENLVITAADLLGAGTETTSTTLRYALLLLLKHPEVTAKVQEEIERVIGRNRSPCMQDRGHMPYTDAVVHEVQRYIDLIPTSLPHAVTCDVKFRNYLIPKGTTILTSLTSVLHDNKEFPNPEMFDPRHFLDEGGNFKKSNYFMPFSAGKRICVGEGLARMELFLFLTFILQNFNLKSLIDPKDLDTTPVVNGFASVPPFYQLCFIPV

inhibition at 10 µM (CYP2C19): 46.5%
IC50 (TPH1): 37 nM
inhibition at 1 µM (TPH1; 1 µM compound): 95%
SMILES: Cc1ccn(-c2cc(Cl)ccc2[C@@H](Oc2ncnc3c(-c4ccc(C[C@H](N)C(=O)O)cc4)csc23)C(F)(F)F)n1.Cl [Compound 18i, (S)-2-amino-3-(4-(4-((R)-1-(4-chloro-2-(3-methyl-1H-pyrazol-1-yl)phenyl)-2,2,2-trifluoroethoxy)thieno[3,2-d]pyrimidin-7-yl)phenyl)propanoic acid hydrochloride]
Body weight gain (HFD-fed C57BL/6J mice; 100 mg/kg ip daily for 10 days after two weeks of HFD): blunted weight gain
eWAT and BAT adipocyte size (histology) (HFD-fed C57BL/6J mice; 100 mg/kg ip daily for 10 days): significant reduction
Fasting blood glucose levels (HFD-fed C57BL/6J mice; 16 h fasting): lower fasting blood glucose levels
